Measurements: US20130035326A1 (AMBIT BIOSCIENCES CORPORATION, priority 2009, published 2013)
pIC50, pKd: −log10 of the molar value.

Columns and labels:
[1] = molecular target: T1, FLT3 kinase (Homo sapiens, UniProt P36888); assay: Competition binding assay, FLT3 Kd
T1 construct: made in house; host or cells: T7 phage display or HEK-293 cells
T1 sequence (P36888 27-993): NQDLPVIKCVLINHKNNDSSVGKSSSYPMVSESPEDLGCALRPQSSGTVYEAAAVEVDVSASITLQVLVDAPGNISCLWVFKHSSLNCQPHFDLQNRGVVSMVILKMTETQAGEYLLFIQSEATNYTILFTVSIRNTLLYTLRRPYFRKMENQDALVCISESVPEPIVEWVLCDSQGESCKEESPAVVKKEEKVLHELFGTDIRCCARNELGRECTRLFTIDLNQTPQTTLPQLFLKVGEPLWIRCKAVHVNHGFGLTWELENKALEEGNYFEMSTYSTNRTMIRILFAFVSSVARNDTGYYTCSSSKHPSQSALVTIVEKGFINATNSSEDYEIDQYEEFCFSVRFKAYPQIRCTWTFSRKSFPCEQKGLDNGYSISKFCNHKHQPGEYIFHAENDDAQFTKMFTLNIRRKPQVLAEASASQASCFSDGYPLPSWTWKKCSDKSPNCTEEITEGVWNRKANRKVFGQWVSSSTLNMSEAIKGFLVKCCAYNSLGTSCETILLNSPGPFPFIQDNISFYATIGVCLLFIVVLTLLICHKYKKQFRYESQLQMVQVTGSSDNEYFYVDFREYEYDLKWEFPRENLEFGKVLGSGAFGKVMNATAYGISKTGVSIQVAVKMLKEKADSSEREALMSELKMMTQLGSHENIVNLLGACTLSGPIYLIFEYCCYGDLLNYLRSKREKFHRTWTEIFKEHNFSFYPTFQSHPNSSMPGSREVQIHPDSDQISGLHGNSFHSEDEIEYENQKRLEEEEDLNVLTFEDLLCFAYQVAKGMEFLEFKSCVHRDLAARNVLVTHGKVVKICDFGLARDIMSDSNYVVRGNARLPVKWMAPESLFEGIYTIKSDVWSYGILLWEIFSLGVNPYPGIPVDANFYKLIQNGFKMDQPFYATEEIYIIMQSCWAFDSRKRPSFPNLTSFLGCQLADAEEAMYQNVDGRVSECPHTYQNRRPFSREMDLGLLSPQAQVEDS
Description: (§1) In certain embodiments, competition binding assays were performed as described in Fabian et al., Nature Biotechnology 2005, 23,329-336.
(§2) Competition binding assays used herein were developed, validated and performed as described in Fabian et al., Nature Biotechnology 2005, 23,329-336. Kinases were produced as fusions to T7 phage (See, Fabian et al. or WO04/015142) or alternatively, the kinases were expressed in HEK-293 cells and subsequently tagged with DNA for PCR detection (See, WO08/005,310). For the binding assays, streptavidin-coated magnetic beads were treated with biotinylated affinity ligands for 30 min at room temperature to generate affinity resins. The liganded beads were blocked with excess biotin and washed with blocking buffer (SeaBlock (Pierce), 1% BSA, 0.05% Tween 20, 1 mM DTT) to remove unbound ligand and to reduce non-specific binding. Binding reactions were assembled by combining kinase, liganded affinity beads, and test compounds in 1× binding buffer (20% SeaBlock, 0.17×PBS, 0.05% Tween 20, 6 mM DTT). Test compounds were prepared as 100× stocks in DMSO and diluted into the aqueous environment. Kds were determined using an eleven point threefold serial dilutions. DMSO or control compounds were was added to control assays lacking a test compound. Primary screen assays were performed in polypropylene 384-well plates in a final volume of 20-40 μL, while Kd determinations were performed in polystyrene 96-well plates in a final volume of 135 μL. The assay plates were incubated at room temperature with shaking for 1 hour to allow the binding reactions to reach equilibrium, and the affinity beads were washed extensively with wash buffer (1×PBS, 0.05% Tween 20) to remove unbound protein. The beads were then resuspended in elution buffer (1×PBS, 0.05% Tween 20, 0.5 μM non-biotinylated affinity ligand) and incubated at room temperature with shaking for 30 min. The kinase concentration in the eluates was measured by quantitative PCR.

[2] = molecular target: T2, KIT kinase (Homo sapiens, UniProt P10721); assay: Competition binding assay, KIT Kd
T2 construct: made in house; host or cells: T7 phage display or HEK-293 cells
T2 sequence (P10721 26-976): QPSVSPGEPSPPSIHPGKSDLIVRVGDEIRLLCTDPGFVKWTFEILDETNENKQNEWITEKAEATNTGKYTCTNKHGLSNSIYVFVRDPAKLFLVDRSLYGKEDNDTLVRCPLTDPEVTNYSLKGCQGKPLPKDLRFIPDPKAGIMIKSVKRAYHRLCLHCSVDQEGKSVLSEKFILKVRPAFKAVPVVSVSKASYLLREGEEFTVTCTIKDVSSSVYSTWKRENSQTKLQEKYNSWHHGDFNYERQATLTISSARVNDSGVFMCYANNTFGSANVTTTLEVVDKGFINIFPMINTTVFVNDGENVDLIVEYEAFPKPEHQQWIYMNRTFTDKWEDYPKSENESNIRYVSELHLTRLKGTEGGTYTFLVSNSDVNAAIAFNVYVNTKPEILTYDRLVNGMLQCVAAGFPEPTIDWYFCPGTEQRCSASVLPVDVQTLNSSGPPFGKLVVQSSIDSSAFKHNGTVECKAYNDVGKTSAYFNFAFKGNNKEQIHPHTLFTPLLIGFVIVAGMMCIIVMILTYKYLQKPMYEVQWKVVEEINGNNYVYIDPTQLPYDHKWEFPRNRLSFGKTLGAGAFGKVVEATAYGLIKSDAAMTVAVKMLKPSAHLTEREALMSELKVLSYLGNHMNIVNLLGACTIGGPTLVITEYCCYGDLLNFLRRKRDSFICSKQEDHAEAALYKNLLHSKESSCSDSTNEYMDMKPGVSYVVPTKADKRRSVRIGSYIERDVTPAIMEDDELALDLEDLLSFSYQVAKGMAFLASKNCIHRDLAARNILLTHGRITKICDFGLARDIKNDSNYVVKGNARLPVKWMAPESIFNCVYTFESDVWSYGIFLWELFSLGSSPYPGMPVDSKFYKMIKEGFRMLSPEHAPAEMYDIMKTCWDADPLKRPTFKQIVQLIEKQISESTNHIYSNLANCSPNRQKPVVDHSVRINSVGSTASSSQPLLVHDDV
Description: as §1, §2

[3] = molecular target: T3, CSF-1R kinase (Homo sapiens, UniProt P07333); assay: Competition binding assay, CSF-1R Kd
T3 construct: made in house; host or cells: T7 phage display or HEK-293 cells
T3 sequence (P07333 20-972): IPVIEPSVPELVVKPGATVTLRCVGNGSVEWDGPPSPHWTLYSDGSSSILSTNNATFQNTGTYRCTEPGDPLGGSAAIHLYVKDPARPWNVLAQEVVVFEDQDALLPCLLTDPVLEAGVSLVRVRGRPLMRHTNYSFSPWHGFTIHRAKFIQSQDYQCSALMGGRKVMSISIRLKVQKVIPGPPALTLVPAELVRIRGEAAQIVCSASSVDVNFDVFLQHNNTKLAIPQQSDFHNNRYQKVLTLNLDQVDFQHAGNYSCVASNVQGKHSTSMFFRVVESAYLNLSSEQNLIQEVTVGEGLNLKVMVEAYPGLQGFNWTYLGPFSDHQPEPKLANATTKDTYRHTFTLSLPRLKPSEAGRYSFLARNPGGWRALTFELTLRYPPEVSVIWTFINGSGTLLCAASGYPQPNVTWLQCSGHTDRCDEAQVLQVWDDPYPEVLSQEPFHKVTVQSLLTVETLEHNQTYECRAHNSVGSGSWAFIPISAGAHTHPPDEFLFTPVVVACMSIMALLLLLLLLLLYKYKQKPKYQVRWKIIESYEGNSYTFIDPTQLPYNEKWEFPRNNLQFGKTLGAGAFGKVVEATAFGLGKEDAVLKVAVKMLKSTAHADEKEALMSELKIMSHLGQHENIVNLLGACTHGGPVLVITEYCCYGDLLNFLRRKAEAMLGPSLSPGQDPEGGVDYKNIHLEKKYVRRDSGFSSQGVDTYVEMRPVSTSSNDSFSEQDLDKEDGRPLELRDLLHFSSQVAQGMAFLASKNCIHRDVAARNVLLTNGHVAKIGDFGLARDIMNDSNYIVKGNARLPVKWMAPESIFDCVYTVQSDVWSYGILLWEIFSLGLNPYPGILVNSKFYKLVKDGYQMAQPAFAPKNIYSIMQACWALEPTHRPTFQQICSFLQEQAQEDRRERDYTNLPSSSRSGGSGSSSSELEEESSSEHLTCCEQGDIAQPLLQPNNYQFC
Description: as §1, §2

[4] = system: MV4-11 cells; assay: MV4-11 cell proliferation assay (Alamar Blue); format: cell-based; details: Homo sapiens, MV4-11, 72 h, 3 days incubation
Description: The compounds disclosed herein were tested in an MV4-11 cell proliferation assay to determine their cellular potency against Flt3. MV4-11 cells carry ITD mutation within juxtamembrane domain of Flt3 kinase which renders the kinase constitutively active. […] This assay measures the potency of compounds as Flt3 inhibitors by measuring the reduction of Alamar Blue reagent by viable cells.
MV4-11 cells were grown in an incubator at 37° C. under 5% CO2 in Iscove's media (Celgro) with 10% FBS. The cell density was kept between 1e5 and 8e5 cells/mL.
On day one of the experiment, cells were harvested and spun at 500 g for 5 min at 4° C., the supernatant aspirated and the cells resuspended in Iscove's media with 0.5% FBS. Cell density was maintained at 7.5e5 to achieve maximum viability of the cells. The resuspended cells were incubated at 37° C. in 5% CO2 overnight.
On day two of the experiment, cells were diluted to 6.4e5/mL with Iscove's media with 0.5% FBS. 100 μL of the cell suspension (64,000 cells) were aliquoted into each well of a 96-well TC-treated plate. Compounds were added at 9 different concentrations, with half-log intervals alongside a control reference compound serving as a positive control. Final DMSO concentration was kept at 0.5% and final volume at 200 μL. The cells were then incubated at 37° C. under 5% CO2 for 3 days.
On day five of the experiment, 40 μL of Alamar Blue reagent was added to each well and the mixture was allowed to incubate for 3 hours. Alamar Blue fluorescence was measured using SoftMax Pro software at 560 nm (excitation) and 590 nm (emission). IC50s were generated as an average of duplicates and represents the concentration of test compound that achieves 50% inhibition of cellular proliferation compared to negative control.

| SMILES | pKd [1] | pKd [2] | pKd [3] | pIC50 [4] |
| --- | --- | --- | --- | --- |
| Cc1nc(N)ccc1-c1ccc(CC(=O)Nc2cc(C(C)(C)C)on2)cc1 [Example 87, 5-(4-(2-(5-tert-butylisoxazol-3-ylamino)-2-oxoethyl)phenyl)-6-methylpyridin-2-aminium methanesulfonate] | ≥ 9.00 | 8.00 to 9.00 | 7.00 to 8.00 | 7.00 to 8.00 |
| CC(C)(CO)c1cc(NC(=O)Cc2ccc(-c3ccc(N)nc3)cc2)no1 [Example 88, 5-(4-(2-(5-(1-hydroxy-2-methylpropan-2-yl)isoxazol-3-ylamino)-2-oxoethyl)phenyl)pyridin-2-aminium methanesulfonate] | ≥ 9.00 | 8.00 to 9.00 | 7.00 to 8.00 | 8.00 to 9.00 |
| COCCNc1ccc(-c2ccc(CC(=O)Nc3cc(C(C)(C)C)on3)cc2)cn1 [Example 89, 5-(4-(2-(5-tert-butylisoxazol-3-ylamino)-2-oxoethyl)phenyl)-N-(2-methoxyethyl)pyridin-2-aminium methanesulfonate] | ≥ 9.00 | 8.00 to 9.00 | ≥ 8.00 | 8.00 to 9.00 |
| Cn1nc(C(C)(C)CF)cc1NC(=O)Nc1ccc(-c2ccc(N)nc2)cc1 [Example 90, 5-(4-(3-(3-(1-fluoro-2-methylpropan-2-yl)-1-methyl-1H-pyrazol-5-yl)ureido)phenyl)pyridin-2-aminium acetate] | 8.00 to 9.00 | 8.00 to 9.00 | 7.00 to 8.00 | 6.30 to 7.00 |
| CC(C)(C)c1cc(NC(=O)Cc2ccc(-c3cnc(N)c(C#N)c3)cc2)no1 [Example 93, 5-(4-(2-(5-tert-butylisoxazol-3-ylamino)-2-oxoethyl)phenyl)-3-cyanopyridin-2-aminium methanesulfonate] | 8.00 to 9.00 | 8.00 to 9.00 | ≥ 8.00 | ≥ 9.00 |
| CC(C)(C)c1cc(NC(=O)Cc2ccc(-c3cnc(N)c(C(N)=O)n3)cc2)no1 [Example 114, 5-(4-(2-(5-tert-butylisoxazol-3-ylamino)-2-oxoethyl)phenyl)-3-carbamoylpyrazin-2-aminium methanesulfonate] | ≥ 9.00 | ≥ 9.00 | ≥ 8.00 | ≥ 9.00 |
| CC(C)(C)c1cc(NC(=O)Cc2ccc(-c3cnc4c(c3)CCCN4)cc2)no1 [Example 120, 6-(4-(2-((5-(tert-butyl)isoxazol-3-yl)amino)-2-oxoethyl)phenyl)-1,2,3,4-tetrahydro-1,8-naphthyridin-1-ium methanesulfonate] | ≥ 9.00 | 8.00 to 9.00 | ≥ 8.00 | 8.00 to 9.00 |
| CS(=O)(=O)O.Nc1ncc(-c2ccc(CC(=O)Nc3cc(C4(C(F)(F)F)CC4)on3)cc2)cc1F [Example 127, 3-fluoro-5-(4-(2-oxo-2-(5-(1-(trifluoromethybcyclopropybisoxazol-3-ylamino)ethyl)phenyl)pyridin-2-aminium methanesulfonate] | ≥ 9.00 | 8.00 to 9.00 | ≥ 8.00 | ≥ 9.00 |
| CC(C)(C)c1cc(NC(=O)Cc2ccc(-c3ccc(N)nc3C(F)(F)F)cc2)no1.CS(=O)(=O)O [Example 129, 5-(4-(2-(5-tert-butylisoxazol-3-ylamino)-2-oxoethyl)phenyl)-6-(trifluoromethybpyridin-2-aminium methanesulfonate] | 7.00 to 8.00 | 7.00 to 8.00 | < 6.30 | 6.30 to 7.00 |
| CS(=O)(=O)O.Cc1cc(-c2ccc(CC(=O)Nc3cc(C4(C(F)(F)F)CC4)on3)cc2)cnc1N [Example 130, 3-methyl-5-(4-(2-oxo-2-(5-(1-(trifluoromethybcyclopropybisoxazol-3-ylamino)ethyl)phenyl)pyridin-2-aminium methanesulfonate] | ≥ 9.00 | 8.00 to 9.00 | ≥ 8.00 | ≥ 9.00 |
| Cn1cc(-c2cc(-c3ccc(CC(=O)Nc4cc(C(C)(C)C)on4)cc3)cnc2N)cn1 [Example 154] | ≥ 9.00 | 8.00 to 9.00 | 7.00 to 8.00 | 8.00 to 9.00 |
| CC(=O)OCC1(c2cc(NC(=O)Cc3ccc(-c4ccc(N)nc4)cc3)no2)CC1 [Example 169] | ≥ 9.00 | 8.00 to 9.00 | ≥ 8.00 | 7.00 to 8.00 |
| CC1(c2cc(NC(=O)Cc3ccc(-c4cnc(N)cc4F)cc3)no2)CC1 [Example 170] | ≥ 9.00 | 8.00 to 9.00 | ≥ 8.00 | 8.00 to 9.00 |
| CCC1(c2cc(NC(=O)Cc3ccc(-c4ccc(N)nc4)cc3)no2)CC1 [Example 171] | ≥ 9.00 | 8.00 to 9.00 | ≥ 8.00 | ≥ 9.00 |
| CC1(c2cc(NC(=O)Cc3ccc(-c4cnc(N)cc4Cl)cc3)no2)CC1 [Example 172] | ≥ 9.00 | ≥ 9.00 | ≥ 8.00 | 8.00 to 9.00 |
| CC(C)(C)c1cc(NC(=O)C(N)c2ccc(-c3ccc(N)nc3)cc2)no1 (stereo not shown) [Example 173] | 8.00 to 9.00 | 7.00 to 8.00 | < 6.30 | 6.30 to 7.00 |
| Cc1nc(-c2ccc(CC(=O)Nc3cc(C(C)(C)C)on3)cc2)c(C)nc1N [Example 174] | ≥ 9.00 | 8.00 to 9.00 | 6.30 to 7.00 | 7.00 to 8.00 |
| CC(C)(C)Sc1cc(-c2ccc(CC(=O)Nc3cc(C(C)(C)C)on3)cc2)cnc1N [Example 175] | 8.00 to 9.00 | 7.00 to 8.00 | 6.30 to 7.00 | 7.00 to 8.00 |
| CC(C)(C)c1cc(NC(=O)Cc2ccc(-c3cnc(N)c(S(=O)(=O)C(C)(C)C)c3)cc2)no1 [Example 176] | ≥ 9.00 | 8.00 to 9.00 | < 6.30 | 7.00 to 8.00 |
| CC1(c2cc(NC(=O)Cc3ccc(-c4cc(F)c(N)nc4F)cc3)no2)CC1 [Example 177] | ≥ 9.00 | 8.00 to 9.00 | ≥ 8.00 | ≥ 9.00 |
| CC(C)(C)c1cc(NC(=O)C(F)(F)c2ccc(-c3ccc(N)nc3)cc2)no1 [Example 178] | ≥ 9.00 | 8.00 to 9.00 | ≥ 8.00 | 8.00 to 9.00 |
| CC(C)(C)c1cc(NC(=O)Cc2ccc(-c3cnc(N)c([S+]([O-])C(C)(C)C)c3)cc2)no1 (stereo not shown) [Example 179] | ≥ 9.00 | 8.00 to 9.00 | 6.30 to 7.00 | 8.00 to 9.00 |
